Measured values as given in PubChem BioAssay (NCI).
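1) Cells in 96-well plates. 2) Compound, 48 h, 5 concentrations. 3) Linear interpolation between surrounding doses. 4) Unreached endpoint = highest concentration. GI50 marks 50% less growth. TGI: concentration producing complete growth inhibition.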

Columns and labels:
Experiment in all cases: inhibition of tumour cell growth, NCI panel, 48 h
ACHN renal = system: ACHN renal
CAKI-1 renal = system: CAKI-1 renal
CCRF-CEM leukemia = system: CCRF-CEM leukemia
HCT-116 colon = system: HCT-116 colon
IGROV1 ovarian = system: IGROV1 ovarian
MCF7 breast = system: MCF7 breast
NCI-H23 lung = system: NCI-H23 lung
SK-MEL-28 melanoma = system: SK-MEL-28 melanoma
LXFL 529 NSCLC = system: LXFL 529 NSCLC

Row | SMILES | GI50 (ACHN renal) | TGI (ACHN renal) | GI50 (CAKI-1 renal) | TGI (CAKI-1 renal) | GI50 (CCRF-CEM leukemia) | TGI (CCRF-CEM leukemia) | GI50 (HCT-116 colon) | TGI (HCT-116 colon) | GI50 (IGROV1 ovarian) | TGI (IGROV1 ovarian) | GI50 (MCF7 breast) | TGI (MCF7 breast) | GI50 (NCI-H23 lung) | TGI (NCI-H23 lung) | GI50 (SK-MEL-28 melanoma) | TGI (SK-MEL-28 melanoma) | TGI (LXFL 529 NSCLC)
1 | C=C(CN1CCc2ccccc2C1)c1ccc(/C=C/C(=O)Nc2ccccc2N)cc1 | 5.4 µM | > 100 µM | 2.21 µM | 94.5 µM | 1.04 µM | > 100 µM | 1.59 µM | 5.7 µM | 4.46 µM | > 100 µM | 2.37 µM | > 100 µM | 9.55 µM | > 100 µM | 46.7 µM | > 100 µM | 
2 | OCc1ccc(N(Cc2ccc(F)cc2)C2CCC2)cc1Cl | 13.2 µM | 26.4 µM | 0.619 µM | 4.02 µM | 14.9 µM | 34.6 µM | 0.115 µM | 3.73 µM | 0.0698 µM | 0.339 µM | 0.178 µM | 10.9 µM | 9.41 µM | 25.4 µM | 13.5 µM | 26.4 µM | 
3 | O=C(Oc1cccc(Nc2ncnc3ccccc23)c1)c1ccccc1Cl | 23.1 µM | 62 µM | 9.6 µM | 35.8 µM | 19.3 µM | 65.1 µM | 14.7 µM | 33 µM | 14.9 µM | > 100 µM | 11.7 µM | 37.1 µM | 13 µM | 31.8 µM | 48.7 µM | > 100 µM | 
4 | Cn1cc(-c2nc(-c3c[nH]c4ncccc34)cs2)c2cc(Cl)ccc21 | 3.6 µM | > 100 µM | 2.65 µM | 9.22 µM | 5.51 µM | > 100 µM | 4.34 µM | > 100 µM | 4.54 µM | > 100 µM | 1.16 µM | > 100 µM | 5.01 µM | > 100 µM | 7.43 µM | > 100 µM | 
5 | O=C1CC2(CCCc3sccc32)C(=O)N1 (stereo unspecified) |  | > 100 µM |  | > 100 µM |  | > 100 µM |  | > 100 µM |  | > 100 µM |  | > 100 µM |  | > 100 µM |  | > 100 µM | 
6 | C=C1C(=O)OC2C1C(OC(=O)/C(C)=C/C)CC(O)(CCl)C1C(OC(C)=O)C=C(C)C21O (stereo unspecified) |  | 22.7 µM |  | 17.7 µM |  | 17.6 µM |  | 20.8 µM |  | 30 µM |  | 19.8 µM |  | 34.1 µM |  | 27.9 µM | 
7 | O=C(CSc1nc2ccc([N+](=O)[O-])cc2[nH]1)Nc1cccc(C(F)(F)F)c1 | 2.42 µM | 8.21 µM | 1.76 µM | 7.15 µM | 2.58 µM | > 60.1 µM | 2.69 µM | 12.1 µM | 2.87 µM | 14.7 µM | 1.95 µM | 9.44 µM | 1.98 µM | 8.81 µM | 2.34 µM | 13.5 µM | 
8 | O=C(Nc1cccc(NS(=O)(=O)c2ccc(F)cc2)c1)c1ccc(-c2ccccc2)cc1 | 3.65 µM | 42.7 µM | 3.74 µM | > 100 µM | 3.46 µM | > 100 µM | 3.48 µM | 13.4 µM | 4.38 µM | 64.9 µM | 2.71 µM | 11.2 µM | 2.83 µM | 10.5 µM | 3.54 µM | 16.9 µM | 
9 | Cc1ccc(C2=[N+]([O-])c3ccccc3C2=O)cc1 |  | 32 µM |  | > 100 µM |  | 25.9 µM |  | > 54.4 µM |  | 43 µM |  |  |  | > 31.6 µM |  | 22 µM | 22.9 µM
10 | CCN(Cc1ccc(F)cc1F)c1ccc(CO)c(Cl)c1 | 14.1 µM | 38.3 µM | 5.11 µM | > 54.1 µM | 23.9 µM | > 88.5 µM | 0.0861 µM | 12.5 µM | 0.105 µM | 0.518 µM | 0.238 µM | 12.6 µM | 9.05 µM | 24.3 µM | 14.1 µM | 27.7 µM | 
11 | COc1c(O)cc2oc3cc(O)c(CC=C(C)C)c(O)c3c(=O)c2c1C/C=C(\C)CCC=C(C)C | 4.98 µM | 9.4 µM | 4.69 µM | 9.39 µM | 11.7 µM | 32.5 µM | 5.24 µM | 10.4 µM | 5.39 µM | 10.4 µM | 6.15 µM | 13.7 µM | 6.6 µM | 14.8 µM | 5.4 µM | 10.3 µM | 
12 | O=c1oc2ccccc2cc1-c1ccc([N+](=O)[O-])cc1 |  | > 100 µM |  | > 100 µM |  | > 100 µM |  | > 100 µM |  | > 100 µM |  | > 100 µM |  | > 100 µM |  | > 100 µM | 
13 | COC(=O)c1ccc(-c2nc3cc(F)c(F)cc3nc2C#N)cc1 | 11.5 µM | 26.3 µM | 8.48 µM | 18.5 µM | 2.27 µM | 18.7 µM | 7.84 µM | 14.6 µM | 9.62 µM | 20.4 µM | 8.86 µM | 23.6 µM | 9.12 µM | 17 µM | 9.58 µM | 33.9 µM | 
